The record followed here is patent US20080188449A1, “Treatment of Conditions Caused By Calcium Abnormalities” (priority 2004, published 2008).

The subject of assay [1] is HeLa cells. Description: HeLa cell viability by trypan blue dye exclusion. In kind it is cell-based. The procedure: Since extracellular calcium concentration can influence triptolide binding Applicants sought to determine if the presence of calcium influences the rate of triptolide-mediated apoptosis. To first establish the growth rate of HeLa in media±calcium, cell counts were performed over a 72 hour time course. Although calcium-free media caused cells to detach more easily, the overall growth rates were similar where cell doubling occurred every 24 hours on average (FIG. 3B). For triptolide experiments, cells were initially equilibrated in medium±calcium for 16 hours before the addition of 100 nM triptolide. Cell death was assessed by trypan blue dye exclusion at 24, 48, and 72 hours post drug treatment. In the presence of calcium-containing medium, triptolide induced at least 50% cell death by 24 hours with this trend continuing through later time points (FIG. 3C).
Applicants' results have implicated reversible binding of triptolide to a potential binding protein or complex that can be regulated by calcium. To understand if triptolide function is further separable between cell death and NFκB inhibition, Applicants examined the effect of concentration on these two endpoints. HeLa cells were cultured in the presence of 0, 10, 25, 50, or 100 nM of triptolide and separately assessed for cell death or the ability to suppress NFκB transactivation promoted by TNF-α. Following 24-48 hours of culture, viable cells were recovered and counted. Following 24 hours, triptolide concentrations from 25-100 nM caused greater than 50% of the cells to undergo cell death as assessed by detachment, clumping and the failure to exclude trypan blue dye. […] This is consistent with previous studies showing that low doses of triptolide cause cell cycle arrest rather than apoptosis (Kiviharju, et al., 2002, Clin Cancer Res 8, 2666-2674).
(§1) Based upon Applicants' studies examining the concentration dependent effect of triptolide on the two measured biological endpoints, cell death and transcriptional repression, Applicants wanted to determine how modulating triptolide's structure may also discriminate between the two pathways. For cell viability assays, HeLa cells were incubated with 0, 0.1, 1, or 10 μM of each analog or triptolide for 24 hours and then counted using trypan blue dye exclusion. […] NFκB transcriptional inhibition was measured using the κB-luciferase assay as previously described following 5 hours of incubation with each analog (0-10 μM) and TNF-α addition.
HeLa cells were incubated in DMEM or SMEM (Gibco) media+10% FBS and maintained at 37° C. in 5% CO2 for all experiments. HeLa cell viability was assessed by trypan blue dye exclusion, as well as by morphological examination (non-viable cells were rounded and detached from culture plate).

For the next assay, the system named is NFκB transactivation. Description: κB-luciferase reporter assay (TNF-α induced). In kind it is cell-based. The settings on record: 5 hours. The procedure:
Having established that triptolide induced cell death is dependent upon free calcium concentration, Applicants next determined if this was also a requirement for the inhibition of NFκB transcription. HeLa cells were transiently transfected with the κB-luciferase reporter construct for 8 hours before being washed and then cultured in the presence or absence of calcium containing medium for 16 hours. Triptolide (100 nM) was pre-incubated with cells for 1 hour before addition of 15 ng/ml of TNF-α for 4 hours.
As an additional experiment, transcriptional activity was also assessed by site-directed calcium buffering. HeLa cells were co-transfected with the κB-luciferase plasmid as well as one of the following constructs: GFP empty vector, NES-PV-GFP, or NLS-PV-GFP and proper GFP localization was confirmed. Cells were grown in the presence of calcium for 24 hours before the addition of 100 nM triptolide and 15 ng/ml TNF-α.
NFκB transactivation was examined using the κb-luciferase reporter construct. HeLa cells were transiently transfected and pre-treated with 0-100 nM triptolide for one hour prior to TNF-α addition. Cells were assessed for NFκB driven luciferase expression after an additional five hours of incubation, at which time TNF-α had induced transcriptional activity by approximately 15-fold in control cells. […] The results thus far support a divergence of triptolide-mediated functions: the pathway regulating growth arrest/death is more sensitive to triptolide and calcium than the mechanism leading to transcriptional repression of NFκB.
as §1
A triple κB promoter-Luciferase reporter construct was a gift of Sankar Ghosh (Yale University). HeLa cells were plated at a density of 2×10^5 in 12 well plates and transfected with 100 ng of the κB-Luciferase plasmid plus Lipofectamine 2000 (Invitrogen) for 24 hours before the addition of 100 nM triptolide for one hour and 15 ng/ml of recombinant (human) TNF-α (Roche) for an additional five hours. The transfection efficiency of HeLa was determined to be 80-90%, and all samples were normalized to protein concentration. Luciferase assays were performed using the Firefly luciferase kit as per manufacturer's protocol (Promega) and results obtained on the Wallac Victor2 1420 Multilabel Counter (Perkin Elmer).
On the technique in general: A reporter such as luciferase makes a cellular process visible.

In assay [2] the test system is HeLa cells. Description: [^3H]-triptolide competition binding in HeLa cells. The note with it: for competition for [^3H]-triptolide binding: 1 μM competitor. The procedure: To gain insight into triptolide's mechanism of action Applicants sought to determine its specific binding activity utilizing a system employing [^3H]-triptolide. In addition to competition with 1 μM or 10 μM unlabeled triptolide, Applicants also measured the binding affinities of triptolide analogs (FIG. 1A). These analogs have been previously described and differ structurally from triptolide in the hydrolysis of the 12,13 epoxide (2), and formation of the ketone at the C-14 hydroxyl (3) (FIG. 1A). […] The effective interaction of these analogs with a presumed triptolide binding entity led us to their use in subsequent experiments addressing the mode of triptolide's biological functions.
(§2) To address first the nature of triptolide binding within the cell, Applicants determined this interaction was reversible as [^3H]-triptolide labeling was out competed by subsequent addition of excess unlabeled triptolide (FIG. 2A). […] Although 25% of the total cellular counts (i.e., representing bound triptolide) were found in the cytosolic fraction, it is uncertain whether this is specific binding or simply that free triptolide had dissociated from its binding protein due to experimental manipulation during fractionation. Since the data thus far had only shown binding within whole cells, Applicants next determined if this triptolide binding protein could be further characterized and/or enriched by its association with chromatographic reagents. HeLa cells were once again labeled with [^3H]-triptolide and total cell lysates were then passed over the anion exchange resin DEAE. Batch elutions with increasing NaCl concentrations were used to disassociate interactions of variable charge. […] Importantly, Applicants also observed that [^3H]-triptolide would only bind to intact cells in culture but would not bind to any component of a total cellular lysate as assessed by interaction with the DEAE resin. Negative results for a triptolide binding interaction were also observed with DNA-cellulose and the cation exchange resin SPFF (sulphopropyl).
Labeling studies were performed by the addition of approximately 30 nM [^3H]-triptolide directly into the culture media for one hour at 37° C. For cold competition studies, 1 μM triptolide was incubated with the cells for one hour before or after the addition of [^3H]-triptolide. Triptolide analog studies followed a similar protocol where concentrations used for competition were either 1 or 10 μM added before [^3H]-triptolide. Medium was removed and cells were washed 3× in cold PBS. Total cell lysates were prepared (150 mM NaCl, 50 mM Tris-HCl pH 7.4, 1 mM EDTA, 1% Triton X-100, and Complete protease inhibitors (Roche)) and protein was quantitated before measuring the [^3H]-triptolide binding activity via liquid scintillation.

Assay [3] has as its system HeLa cells. Description: Cellular fractionation of [^3H]-triptolide labeled HeLa cells. In kind it is binding.
Description: as §2, with “DEAE.” for “DEAE. Batch elutions with increasing NaCl concentrations were used to disassociate interactions of variable charge.”, “Negative results for a triptolide binding interaction were also observed with DNA-cellulose and the cation exchange resin SPFF (sulphopropyl).” left out
For cellular fractionation studies, cells were allowed to swell on ice and lysed by passage through a syringe in a hypotonic lysis buffer (10 mM Tris-HCl+complete protease inhibitors). […] Gel slices were measured out in equal increments and the molecular weight range of each was calculated. […]

The subject of assay [4] is HeLa cells. Description: [^3H]-triptolide saturation (specific) binding assay. The settings on record: saturation plot. The procedure: Based upon the data above, Applicants next sought to determine if triptolide binding was saturable and if more than one protein (or binding site) was being targeted. Determination of the [^3H]-triptolide binding affinity (KD) and the binding capacity per cell (Bmax) were calculated using a saturation plot. HeLa cells were cultured to 90% confluency and subsequently treated with 0-100 nM of [^3H]-triptolide for one hour. Non-specific binding was defined using 2 μM cold triptolide as competitor. Bmax was calculated to be 99±19 fmol triptolide bound/10^5 cells of triptolide binding sites.
Saturation binding assays were accomplished in HeLa cells adhered on 6-well plates in DMEM+10% FBS. All samples were at least 90% confluent at time of addition of triptolide. Non-specific binding of [^3H]-triptolide was assessed by the pre-incubation of 2 μM (non-labeled) triptolide for one hour. Following cold competition (or DMSO) 5, 10, 20, 50, or 100 nM of [^3H]-triptolide was added into the cultures for an additional one hour, and then cells were lysed and counted for binding activity.

The test system of assay [5] is HeLa cells. As to the kind of experiment: [^3H]-triptolide binding with or without extracellular calcium. The text has this: To understand further the nature of triptolide's interaction within the cell, Applicants altered cell culture conditions to examine if [^3H]-triptolide binding would be affected. […] Additionally, it has been established that aberrant calcium signaling can result in cell death (Rizzuto, et al., 2003, Oncogene 22, 8619-8627; Orrenius, et al., 2003, Nat Rev Mol Cell Biol 4, 552-565). Due to triptolide's own link with NFκB and NF-AT and its propensity to induce cell death, Applicants examined if triptolide binding could be modulated by free calcium levels. Adherent HeLa cells were cultured in the presence or absence of calcium containing medium for 16 hours before [^3H]-triptolide addition. […] It is also noteworthy that an increase in cell density (not cell number) also increases triptolide binding regardless of calcium levels. Additionally, specific calcium chelation by 10 mM EGTA for one hour in calcium containing medium increased binding by nearly 2 fold.
Labeling studies were performed by the addition of approximately 30 nM [^3H]-triptolide directly into the culture media for one hour at 37° C. […] Total cell lysates were prepared (150 mM NaCl, 50 mM Tris-HCl pH 7.4, 1 mM EDTA, 1% Triton X-100, and Complete protease inhibitors (Roche)) and protein was quantitated before measuring the [^3H]-triptolide binding activity via liquid scintillation.

On to `CC(C)[C@]12O[C@H]1[C@@H]1O[C@@]13[C@@]1(C)CCC4=C(COC4=O)[C@@H]1C[C@@H]1O[C@@]13C2=O` [analog (3), Triptonide], for which the effect on cells result in the assay on HeLa cells [1] (25 nM) is on record as “only a growth suppressive effect”. Besides, the “profile of cell death” value with HeLa cells [1] (0.1-10 μM, 24 hours) is listed as “mimicked triptolide with no significant difference”. For the same compound, in the assay with NFκB transactivation (0.1-10 μM), the “profile of transcriptional repression” value was “mimicked triptolide with no significant difference”. For the same compound, the “competition for [^3H]-triptolide binding” value in the assay with HeLa cells [2] (HeLa cells) is “higher competitive ability than triptolide itself”. Moreover, the “displacement of [^3H]-triptolide binding” value in the assay with HeLa cells [2] (1 or 10 μM competitor one hour before [^3H]-triptolide, HeLa cells) is recorded as “near complete”.
On to `CC(C)[C@]12O[C@H]1[C@@H]1O[C@]13[C@]1(O[C@H]1C[C@H]1C4=C(CC[C@@]13C)C(=O)OC4)[C@@H]2O` [[^3H]-triptolide], for which the “total cellular counts found in the cytosolic fraction” value in the assay with HeLa cells [3] (S-100) was found to be 25%. Also, in the assay with HeLa cells [3] (S-100 / P-100 fractionation), the cellular fraction bound result is given as “predominantly to the membrane fraction (P-100)”. Moreover, in the assay with HeLa cells [4], the “binding capacity per cell (Bmax)” value is 99±19 fmol triptolide bound/10^5 cells. In the assay with HeLa cells [5] (10 mM EGTA for one hour in calcium containing medium), the increase of binding is on record as around 2 fold. The “increase of [^3H]-triptolide binding” value in the assay with HeLa cells [5] (absence of extracellular calcium for 16 hours) is 2-4 fold. Besides, in the assay on HeLa cells [2] (excess unlabeled triptolide added after [^3H]-triptolide), the “nature of binding interaction” value was “reversible”.
As to `CC(C)C1(O)C(O)C2OC23C2(C)CCC4=C(COC4=O)C2CC2OC23C1O` (stereo not shown) [analog (2), Triol-Triptolide], the cell viability entry in the assay with HeLa cells [1] (0.1 μM, 24 hours) was “not different from the untreated control”. Moreover, in the assay with HeLa cells [1] (0.1 μM, out to 72 hours), the cell growth entry is “overall growth suppressive effect”. For the same compound, the cell death entry in the assay with HeLa cells [1] (1 μM, 24 hours) is listed as “greater than 50%”. Besides, the “effect on NFκB transcriptional activity” value with NFκB transactivation (1 μM) was “no effect”. The “competition for [^3H]-triptolide binding” value in the assay with HeLa cells [2] (HeLa cells) is reported as “efficiently competes”.
